The source of these data is US20060159727A1, “Prevention of Systemic Microbial Infection” (priority 2005, published 2006).

The test system of assay [1] is Salmonella enteriditis phage type VIII (SePT8). Description: Susceptibility test: paper disk zone of inhibition on inoculated agar plate. In kind it is cell-based. The conditions noted are these: paper disk impregnated with fixed concentration of test material, 2 days. The protocol: An agar plate was uniformly inoculated with salmonella and a paper disk impregnated with a fixed concentration of test material was placed on top of the agar surface. […] The bacteria used was Salmonella enteriditis phage type VIII (SePT8). The study was conducted for 2 days. A disk soaked in sterile water was used as control.

The test system of another assay is salmonella. Briefly: Concentration of salmonella in organs of challenged chicks fed test material. In kind it is in vivo. The conditions noted are these: chicks fed supplemented diet from hatch, sacrificed at 14 days. The protocol:
Newly hatched chicks were fed a diet supplemented with the test materials, at 7 days of age, chicks were challenged 0.2 ml of a 2×10^9 salmonella culture. Chicks were sacrificed at 14 days of age (1 week after bacterial challenge), their organs dissected and cultured to determine bacterial counts.

For another assay, the system named is E. coli. The note with it: cited from earlier work.

As for `O=S(=O)([O-])[O-].[Cu+2]` [Copper Sulfate], the “Zone of Inhibition” value in assay [1] turned out to be 1.444 mm. In addition, in the assay with salmonella (challenged at 7 days with 0.2 ml of 2×10^9 culture, liver), the “concentration of salmonella in Liver” value is 11 cfu. Besides, the “concentration of salmonella in Ceca” value with salmonella (challenged at 7 days, ceca) worked out at 54 cfu. In addition, the “concentration of salmonella in Colon” value in the assay on salmonella (challenged at 7 days, colon) came to 74 cfu. The “concentration of salmonella in Duodenum” value in the assay with salmonella (challenged at 7 days, duodenum) was 19 cfu. The “concentration of salmonella in Spleen” value in the assay with salmonella (challenged at 7 days, spleen) is 10 cfu.
For `CC(C)=CCCC(C)=CC=O` [citral], the “citral concentration in growth media that reduced the concentration of E. coli” value in the assay on E. coli is on record as “more than 0.01%”. Also, the “citral concentration with bactericidal effect” value with E. coli (growth media, E. coli) is listed as 0.08%.
Consider Gentamycin, for which, in assay [1], the “Zone of Inhibition” value was 1.300 mm.
